Experimental data taken from patent US10064891B2, “Assembly of micelle aggregates of surfactant micelles and silver nanoparticles and use as antibacterial agent” (Otago Innovation Limited, priority 2013, dated 2018).

Assays:
[1] = Determination of cmc / cmceff by electrical conductivity; format: physicochemical; details: H2O, 25° C.; for cmc of pure surfactant (cmceff at 0 mM AgNO3): no AgNO3
Method: Electrical conductivity measurements (mS cm^−1) were performed on five SDS solutions over a range of concentrations, with each solution containing a different amount of added AgNO3. […] Standard deviations for each data point are <0.014 mS cm^−1 in all cases. Closed symbols represent the data points used for the linear regression analysis below the cmc, and the open symbols for the analysis above the cmc. For each sample, regardless of the electrolyte content, as the SDS concentration was varied, an inflection point in the electrical conductivity was observed, indicating the cmc. A linear regression analysis of the conductivity data of each of the five samples was performed above and below the inflection point. In all cases, no significant deviations from linearity were observed over the concentration ranges. A dashed line has been added to one data set to indicate the point of intersection of the two corresponding linear equations, thus indicating the cmc. The cmc of pure SDS in H2O in the absence of AgNO3 was determined to be 8.1 mM. The curve represents a critical ‘cmc boundary’ for the SDS/AgNO3 system, i.e. the cmceff of SDS at a given AgNO3 concentration between 0-10 mM.
Following the procedure detailed in Example 1, electrical conductivity measurements were performed on sodium dodecylbenzenesulfonate (SDBS), sodium lauryl ether sulfate (SLES) and ammonium lauryl sulfate (ALS) solutions containing different amounts of added AgNO3 in order to determine the cmceff of each surfactant. […] Linear regression analysis was performed as described in Example 1. The cmc of pure SDBS, SLES and ALS at 25° C. was determined to be 1.4, 3.1 and 6.7 mM, respectively.

[2] = absence of any salts; cited from earlier work

Compound	Cmceff ([1]; [AgNO3] 0.6 mM)	cmc of pure surfactant (cmceff at 0 mM AgNO3) [1]	cmc of pure SDS in water (known) [2]	Cmceff ([1]; [AgNO3] 2.9 mM)
CCCCCCCCCCCCOS(=O)(=O)O.N [ALS, ammonium lauryl sulfate]	4.6 mM	6.7 mM	–	–
CCCCCCCCCCCCOS(=O)(=O)[O-].[Na+] [SDS, sodium dodecyl sulfate]	–	8.1 mM	8.0 to 8.3 mM	–
sodium lauryl ether sulfate [SLES]	2.1 mM	3.1 mM	–	1.9 mM
